Data: US11464810B2, “Ascaroside treatment of eosinophilic esophagitis” (California Institute of Technology, priority 2016, dated 2022)

Experiments:
IL-1β = IL-1β secretion by bone marrow-derived dendritic cells, ELISA; format: cell-based, mouse; settings: different concentrations of ascr#7
Protocol: (§1) Bone marrow was extracted from femurs of C57BL/6 mice (6-12 weeks of age). These mice were euthanized by CO2 inhalation and their femurs were removed. After removing the remaining flesh from the bone, they were cut at the metaphysis. Bone marrow was flushed out using a syringe filled with RPMI. The extracted marrow was further broken down by resuspension with syringe. The mixture was centrifuged and the pellet was re-suspended in RPMI. […] 20 ng of GM-CSF was added to each well. At day 3, and every 3 days thereafter, the media was replaced. Cells were used for experiments between day 7-9.
(§2) Bone marrow dendritic cells were collected between day 7-9 of culture. Cells were washed twice and counted. Ascr#7 in water or RPMI were placed in corresponding wells, and are allowed to dry. 10^6 cells were then plated in each well in a 24 well culture plate. Cells were left to incubate with ascr#7 for 5 minutes. Following the brief incubation, different TNFα was added to the wells. These bone marrow dendritic cells were then cultured at 37° C. for 18-72 hours. Cells were collected via the pellet generated by centrifuge. The supernatant was also preserved. EBioscience ELISA kits was used to determine the concentration of different cytokines present in each well.

IL-6 = IL-6 secretion by bone marrow-derived dendritic cells, ELISA; format: cell-based, mouse; settings: different concentrations of ascr#7
Protocol: as §1, §2

[1] = system: ovalbumin model of murine asthma; experiment: ovalbumin model of murine asthma; format: in vivo, mouse; settings: C57BL/6 mice
Protocol: Adult C57BL/6 mice were sensitized by administering 2 ug OVA (Sigma-Aldrich) and 1 mg alum (Thermo) with 50ng ascr#7 or saline, via intraperitoneal injection, on Day 0 and 14. On day 24, the mice were challenged with intranasal administration of saline containing 100 μg OVA, under isoflurane anesthesia. Histologic sections were stained with H&E or PAS to score for eosinophilia, goblet cell metaplasia, and airway hyper-reactivity. Mice were also placed in a computer controlled small animal ventilator (SCIREQ) to score for airway hyper-reactivity following methacholine challenge. […] Animals with asthma have higher resistance of flow, which would be represented as higher “RL” values in FIG. 3B-FIG. 3F. […] Lungs were collected, postmortem, and then sectioned and stained to show the presence of eosinophils and mucus. […] In FIG. 3G, the asthmatic mouse lung, here labeled “Asthma” has a large number of mucus and eosinophils that surround the bronchioles and occupy the alveolar space; wherein the thick barriers would prohibit oxygen from easily diffusing.

[2] = system: T cell transfer model of colitis; experiment: T cell transfer model of colitis (immune dysregulation model of inflammatory bowel disease); format: in vivo, mouse; settings: Rag −/− mice, 300 ng ascr#7 intraperitoneal every 3 days between day 14 and day 28
Protocol: A T cell transfer model of colitis where 10^6 CD4+ T cells were transferred to adult Rag −/− mice was used, and either saline or 300 ng ascr#7 were administered via intraperitoneal injection every 3 days between day 14 and day 28. On day 28, the mice were euthanized and colon analysis was performed. n=3 mice per group. […] The normal mouse colon is long, skinny, and has discrete fecal pellets. The diseased mouse colon, with IBD, has a shortened, dilated colon, with diarrhea instead of discrete fecal pellets.

[3] = 50ng ascr#7 intraperitoneal on Day 0 and 14, H&E or PAS sections

`C[C@H](CC/C=C/C(=O)O)O[C@@H]1O[C@@H](C)[C@H](O)C[C@H]1O` [ascr#7] was tested, and the IL-1β levels (IL-1β; dendritic cells not stimulated with TNF-α, FIG. 2 left side) was “very low levels of IL-1β”, the “secreted IL-1β levels” value (IL-1β; dendritic cells stimulated with TNF-α, FIG. 2 right side) was “reduces these levels significantly” and the IL-6 levels (IL-6; dendritic cells not stimulated with TNF-α, FIG. 1 left side) was “very low levels of IL-6”. For the same compound, the “secreted IL-6 levels” value (IL-6; dendritic cells stimulated with TNF-α, FIG. 1 right side) was “reduces these levels significantly”, the development of eosinophilia [1, 3] was “reduces the development of” and the “development of goblet cell metaplasia” value [1, 3] was “reduces the development of”. For the same compound, the “lung histology (eosinophils and mucus; boundaries between bronchioles and alveolar space)” value ([1]; 50ng ascr#7 intraperitoneal on Day 0 and 14, stained lung sections, FIG. 3G) was “thin boundaries between the bronchioles and the alveolar space, comparable to the normal mice”, the “resistance of air flow (RL), airway hyper-reactivity following methacholine challenge” value ([1]; 50ng ascr#7 intraperitoneal on Day 0 and 14 with OVA/alum, FIG. 3B-3F) was “low resistance of air flow, with comparable levels to normal mice” and the “development of abnormal lumen dilation” value [2] was “markedly reduces the development of”. The “development of colon shortening” value [2] was “markedly reduces the development of”, the development of diarrhea [2] was “markedly reduces the development of” and the “colon appearance (length, dilation, fecal pellets)” value ([2]; colon analysis day 28, FIG. 4) was “normal appearing colon, which is long, skinny, and contains discrete fecal pellets”.
